Laboratory results from patent US8236850B2, “Dimeric derivatives of artemisinin and application in anticancer therapy” (Pierre Fabre Medicament, priority 2007, dated 2012).

Tests used:
A549 cell line (lung) = test: Cytotoxic activity: inhibition of cell proliferation, residual ATP by luminescence (ATPLite); format: cell-based; conditions: Homo sapiens, 72 hours of incubation
Procedure: (§1) Cytotoxic activity of the compounds prepared according to the invention was evaluated by measuring inhibition of cell proliferation of tumoral cell lines of human origin, such as the A549 cell line (lung) and the Namalwa cell line (lymphoma). This activity is expressed by IC50, the concentration of the tested product capable of inhibiting cell proliferation by 50%. The method used is a measurement of residual ATP by luminescence after 72 hours of incubation by using the “ATPLite” kit marketed by Perkin Elmer.

[1] = system: Namalwa cell line (lymphoma); test: as above; format: cell-based; conditions: Homo sapiens, 72 hours of incubation
Procedure: as §1

| SMILES | IC50 (A549 cell line (lung)) [nM] | IC50 [1] [nM] |
| --- | --- | --- |
| C[C@@H]1CC[C@H]2C(CNC(=O)c3cccc(C(=O)NCC4=C(C(F)(F)F)O[C@@H]5O[C@@]6(C)CC[C@H]7[C@H](C)CC[C@@H]4[C@@]57OO6)n3)=C(C(F)(F)F)O[C@@H]3O[C@@]4(C)CC[C@@H]1[C@]32OO4 [Compound 30] | 170 | 72 |
| C[C@@H]1CC[C@H]2C(COCC#CC(O)C3=C(C(F)(F)F)O[C@@H]4O[C@@]5(C)CC[C@H]6[C@H](C)CC[C@@H]3[C@@]46OO5)=C(C(F)(F)F)O[C@@H]3O[C@@]4(C)CC[C@@H]1[C@]32OO4 (stereo partly shown) [Compound 39] | 240 | 160 |
| C[C@@H]1CC[C@H]2C(COC(=O)c3cccc(C(=O)OCC4=C(C(F)(F)F)O[C@@H]5O[C@@]6(C)CC[C@H]7[C@H](C)CC[C@@H]4[C@@]57OO6)n3)=C(C(F)(F)F)O[C@@H]3O[C@@]4(C)CC[C@@H]1[C@]32OO4 [Compound 25] | 140 | 62 |
| C[C@@H]1CC[C@H]2C(COCc3cccc(COCC4=C(C(F)(F)F)O[C@@H]5O[C@@]6(C)CC[C@H]7[C@H](C)CC[C@@H]4[C@@]57OO6)n3)=C(C(F)(F)F)O[C@@H]3O[C@@]4(C)CC[C@@H]1[C@]32OO4 [Compound 37] | 74 | 30 |
| C[C@@H]1CC[C@H]2C(COC(=O)c3ccc(C(=O)OCC4=C(C(F)(F)F)O[C@@H]5O[C@@]6(C)CC[C@H]7[C@H](C)CC[C@@H]4[C@@]57OO6)s3)=C(C(F)(F)F)O[C@@H]3O[C@@]4(C)CC[C@@H]1[C@]32OO4 [Compound 27] | 210 | 130 |
| C[C@@H]1CC[C@H]2C(COCc3cn(CC4=C(C(F)(F)F)O[C@@H]5O[C@]6(C)CC[C@H]7[C@H](C)CC[C@@H]4[C@@]57OO6)nn3)=C(C(F)(F)F)O[C@@H]3O[C@@]4(C)CC[C@@H]1[C@]32OO4 [Compound 33] | 110 | 30 |
| C[C@@H]1CC[C@H]2C(CSCCCCSCC3=C(C(F)(F)F)O[C@@H]4O[C@@]5(C)CCC6[C@H](C)CC[C@@H]3[C@]64OO5)=C(C(F)(F)F)O[C@@H]3OC4(C)CCC1[C@]32OO4 (stereo partly shown) [Compound 8] | 270 | 64 |
| C[C@@H]1CC[C@H]2C(COCc3cnnn3CC3=C(C(F)(F)F)O[C@@H]4O[C@@]5(C)CC[C@@]6(C)[C@H](C)CC[C@@H]3[C@@]46OO5)=C(C(F)(F)F)O[C@@H]3O[C@@]4(C)CC[C@@H]1[C@]32OO4 [Compound 32] | 270 | 130 |
| C[C@@H]1CC[C@H]2C(CN(C)CCCN(C)CC3=C(C(F)(F)F)O[C@@H]4O[C@@]5(C)CCC6[C@H](C)CC[C@@H]3[C@]64OO5)=C(C(F)(F)F)O[C@@H]3OC4(C)CCC1[C@]32OO4 (stereo partly shown) [Compound 12] | 690 | 390 |
| C[C@@H]1CC[C@H]2C(CSCCSCC3=C(C(F)(F)F)O[C@@H]4O[C@@]5(C)CCC6[C@H](C)CC[C@@H]3[C@]64OO5)=C(C(F)(F)F)O[C@@H]3OC4(C)CCC1[C@]32OO4 (stereo partly shown) [Compound 6] | 63 | 27 |
| C[C@@H]1CC[C@H]2C(CSCC3=C(C(F)(F)F)O[C@@H]4O[C@@]5(C)CCC6[C@H](C)CC[C@@H]3[C@]64OO5)=C(C(F)(F)F)O[C@@H]3OC4(C)CCC1[C@]32OO4 (stereo partly shown) [Compound 1] | 200 | 290 |
| C[C@@H]1CC[C@H]2C(CN(C)CCN(C)CC3=C(C(F)(F)F)O[C@@H]4O[C@@]5(C)CCC6[C@H](C)CC[C@@H]3[C@]64OO5)=C(C(F)(F)F)O[C@@H]3OC4(C)CCC1[C@]32OO4 (stereo partly shown) [Compound 11] | 1100 | 790 |
| C[C@@H]1CC[C@H]2C(COC(=O)c3cccc(C(=O)OCC4=C(C(F)(F)F)O[C@@H]5O[C@@]6(C)CC[C@H]7[C@H](C)CC[C@@H]4[C@@]57OO6)c3)=C(C(F)(F)F)O[C@@H]3O[C@@]4(C)CC[C@@H]1[C@]32OO4 [Compound 26] | 71 | 54 |
| C[C@@H]1CC[C@H]2C(C[S+]([O-])CC3=C(C(F)(F)F)O[C@@H]4O[C@@]5(C)CCC6[C@H](C)CC[C@@H]3[C@]64OO5)=C(C(F)(F)F)O[C@@H]3OC4(C)CCC1[C@]32OO4 (stereo partly shown) [Compound 2] | 850 | 1000 |
| C[C@@H]1CC[C@H]2C(CSCCCSCC3=C(C(F)(F)F)O[C@@H]4O[C@@]5(C)CCC6[C@H](C)CC[C@@H]3[C@]64OO5)=C(C(F)(F)F)O[C@@H]3OC4(C)CCC1[C@]32OO4 (stereo partly shown) [Compound 7] | 150 | 100 |
| C[C@@H]1CC[C@H]2C(CNC(=O)c3ccc(C(=O)NCC4=C(C(F)(F)F)O[C@@H]5O[C@@]6(C)CC[C@H]7[C@H](C)CC[C@@H]4[C@@]57OO6)s3)=C(C(F)(F)F)O[C@@H]3O[C@@]4(C)CC[C@@H]1[C@]32OO4 [Compound 31] | 220 | 88 |
| C[C@@H]1CC[C@H]2C(COCCSSCCOCC3=C(C(F)(F)F)O[C@@H]4O[C@@]5(C)CCC6[C@H](C)CC[C@@H]3[C@]64OO5)=C(C(F)(F)F)O[C@@H]3OC4(C)CCC1[C@]32OO4 (stereo partly shown) [Compound 5] | 90 | 50 |
| C[C@@H]1CC[C@H]2C(COCCSCC3=C(C(F)(F)F)O[C@@H]4O[C@@]5(C)CCC6[C@H](C)CC[C@@H]3[C@]64OO5)=C(C(F)(F)F)O[C@@H]3OC4(C)CCC1[C@]32OO4 (stereo partly shown) [Compound 9] | 31 | 24 |
| C[C@@H]1CC[C@H]2C(CS(=O)(=O)CC3=C(C(F)(F)F)O[C@@H]4O[C@@]5(C)CCC6[C@H](C)CC[C@@H]3[C@]64OO5)=C(C(F)(F)F)O[C@@H]3OC4(C)CCC1[C@]32OO4 (stereo partly shown) [Compound 3] | 1200 | 2300 |
| C[C@@H]1CC[C@H]2C(CSSCC3=C(C(F)(F)F)O[C@@H]4O[C@@]5(C)CCC6[C@H](C)CC[C@@H]3[C@]64OO5)=C(C(F)(F)F)O[C@@H]3OC4(C)CCC1[C@]32OO4 (stereo partly shown) [Compound 4] | 84 | 64 |
